In the NIST ThermoML archive (doi:10.1016/j.jct.2016.10.042):

Assay: xn = mol fraction of the nth substance listed
Conditions: 101 kPa, Liquid, Pycnometric method

C=CC(=O)OCCCC [butyl 2-propenoate] + C1CCOC1
mass density [kg/m3]
Conditions | 293.15 K | 298.15 K | 303.15 K | 308.15 K | 313.15 K | 318.15 K
x2 = 0 | 898.85 | 894.1 | 889.35 | 884.6 | 879.85 | 875.1
x2 = 0.0712 | 898.62 | 893.89 | 889.16 | 884.42 | 879.68 | 874.94
x2 = 0.1406 | 898.39 | 893.66 | 888.93 | 884.19 | 879.45 | 874.71
x2 = 0.208 | 898.1 | 893.37 | 888.64 | 883.91 | 879.17 | 874.43
x2 = 0.2779 | 897.74 | 893.01 | 888.27 | 883.53 | 878.79 | 874.05
x2 = 0.3685 | 897.14 | 892.4 | 887.66 | 882.91 | 878.16 | 873.41
x2 = 0.4339 | 896.6 | 891.85 | 887.1 | 882.35 | 877.59 | 872.83
x2 = 0.4996 | 895.97 | 891.21 | 886.45 | 881.69 | 876.92 | 872.15
x2 = 0.5642 | 895.25 | 890.48 | 885.71 | 880.93 | 876.15 | 871.37
x2 = 0.6426 | 894.22 | 889.43 | 884.64 | 879.85 | 875.05 | 870.25
x2 = 0.7208 | 893.03 | 888.22 | 883.41 | 878.59 | 873.77 | 868.95
x2 = 0.7956 | 891.72 | 886.88 | 882.04 | 877.2 | 872.36 | 867.51
x2 = 0.8642 | 890.32 | 885.45 | 880.58 | 875.71 | 870.84 | 865.97
x2 = 0.9322 | 888.76 | 883.86 | 878.96 | 874.05 | 869.14 | 864.23

C=CC(=O)OCC [ethyl propenoate] + C1CCOC1
mass density [kg/m3]
Conditions | 293.15 K | 298.15 K | 303.15 K | 308.15 K | 313.15 K | 318.15 K
x2 = 0 | 921.76 | 915.95 | 910.14 | 904.33 | 898.52 | 892.71
x2 = 0.0825 | 920.35 | 914.64 | 908.93 | 903.22 | 897.5 | 891.78
x2 = 0.167 | 918.74 | 913.11 | 907.48 | 901.85 | 896.22 | 890.59
x2 = 0.2302 | 917.35 | 911.79 | 906.23 | 900.67 | 895.1 | 889.53
x2 = 0.316 | 915.21 | 909.73 | 904.25 | 898.77 | 893.29 | 887.81
x2 = 0.3892 | 913.14 | 907.73 | 902.32 | 896.91 | 891.5 | 886.09
x2 = 0.4603 | 910.93 | 905.58 | 900.23 | 894.88 | 889.53 | 884.18
x2 = 0.5286 | 908.61 | 903.32 | 898.03 | 892.74 | 887.45 | 882.16
x2 = 0.5947 | 906.16 | 900.93 | 895.7 | 890.47 | 885.24 | 880
x2 = 0.6605 | 903.54 | 898.36 | 893.18 | 888 | 882.82 | 877.64
x2 = 0.7283 | 900.64 | 895.52 | 890.4 | 885.28 | 880.16 | 875.04
x2 = 0.7874 | 897.95 | 892.88 | 887.81 | 882.74 | 877.67 | 872.6
x2 = 0.8689 | 894 | 888.98 | 883.96 | 878.94 | 873.92 | 868.9
x2 = 0.936 | 890.52 | 885.53 | 880.54 | 875.55 | 870.56 | 865.57
